{
  "source": "patent US9993538B2",
  "about": "“Peptide vaccine therapy for treatment of FRα-expressing tumors” (Galena Biopharma, Inc., priority 2015, dated 2018)",
  "key": {"[1]": {"design": "species or system human", "settings": "in vivo", "from_the_text": "Eligible patients were identified with endometrial, ovarian, fallopian tube or peritoneal cancer and were disease-free after standard of care therapies. Patients were surgically or naturally post-menopausal. Exclusion criteria included patients currently receiving immunosuppressive therapy to include chemotherapy, steroids or methotrexate, poor health (ECOG […]), evidence of end-organ dysfunction, pregnancy, breast feeding, history of autoimmune disease, and involvement in other experimental protocols (except with permission of the principal investigator of the other study). […]\nThe E39 peptide (FBP 191-199, EIWTHSYKV) was produced commercially by an FDA-compliant production facility for patient use. […] This dose (250 mcg) of GM-CSF has been previously determined to be a safe and effective dose, based on our prior work with NeuVax^6. […]\nThe phase I portion of this trial consisted of dose escalation to determine a safe and effective dose of the E39 peptide. […] Prior to the fourth inoculation, each patient was assessed for liver, renal, and hematopoietic dysfunction. […]\nStandard local and systemic toxicities were collected and graded per the National Cancer Institute Common Terminology Criteria for Adverse Events, v4.03 toxicity scale. […] Systemic toxicity and inoculation site local reactions were also determined after 48-72 hours."}, "[2]": {"assay": "Booster study: local reactions (LR) 48-72 hours after each booster, safety", "format": "in vivo, human", "settings": "500 mcg peptide + 250 mcg GM-CSF booster", "from_the_text": "Booster inoculations of peptide vaccines may improve disease-free survival (DFS) (e.g., U.S. Pat. No. 8,222,214), but repeated boosting can theoretically lead to overstimulation and loss of vaccine-induced T cells. Therefore, to assess the use of the attenuated E39′ peptide as a booster, E39-vaccinated patients described in Example 1 were randomized to receive either E39 or E39′ as a booster to determine the effect on long-term E39-specific immunity. Patients in the VG received six intradermal E39 injections as described in Example 1 as a primary vaccination schedule (PVS). […]\nLocal reactions (LR) were recorded 48-72 hours after each booster. Immune response was determined by measurement of E39 specific CTL levels using a Dextramer reagents in accordance with the manufacturer's instructions (Immudex Limited, Copenhagen, Denmark) as previously described (e.g., Tario et al. Cytometry B Clin. Cytom. 2015; 88B:6-20; Baba J. Transl Med. 2010; 8:84), at R0 (baseline pre-vaccination), RC1(1 month after completion of PVS), RC6 (6 months after completion of PVS and before booster), RC7 (1 month after booster) and RC12 (6 months after booster and 12 months after completion of PVS). Demographic, safety, immunological, and DFS data were collected and evaluated."}, "[3]": {"tested_on": "tumor-associated lymphocyte (TAL)", "settings": "cited from earlier work"}},
  "note": "No end group written: not given here.",
  "data": [
    {"substance": "EIWTHSYKV [E39, EIWTHSYKV]", "values": [
      {"measurement": "patients experiencing grade 3 toxicity", "setting": "[1]", "value": 1, "unit": "patient"}
    ]},
    {"substance": "EIWTFSTKV [E39′, EIWTFSTKV]", "values": [
      {"measurement": "safety of booster", "setting": "[2]", "value": "safe"}
    ]},
    {"substance": "E41: FRα-derived immunogenic peptide E41 (FRα 245-253) (LLSLALMLL; UniProt P15328 245-253, looked up, fragment)", "values": [
      {"measurement": "effect on TAL proliferation and anti-tumor function", "setting": "[3]", "value": "capable of enhancing tumor-associated lymphocyte (TAL) proliferation and anti-tumor function"}
    ]}
  ]
}
